The source of these data is patent publication US20230279020A9, “CARM1 INHIBITORS AND USES THEREOF” (Epizyme, Inc., priority 2013, published 2023).

The target of the test is Human CARM1 (PRMT4) (Homo sapiens (Human), UniProt Q86X55). The test is described as follows: CARM1 enzyme assay on peptide substrate (3H-SAM Flashplate). The note with it: Biochemical potencies, classification codes; read-out: Biochem IC50.
Chain of Human CARM1 (PRMT4) (Q86X55 other isoform, or with tags, fused parts or gaps isoform Q86X55-1): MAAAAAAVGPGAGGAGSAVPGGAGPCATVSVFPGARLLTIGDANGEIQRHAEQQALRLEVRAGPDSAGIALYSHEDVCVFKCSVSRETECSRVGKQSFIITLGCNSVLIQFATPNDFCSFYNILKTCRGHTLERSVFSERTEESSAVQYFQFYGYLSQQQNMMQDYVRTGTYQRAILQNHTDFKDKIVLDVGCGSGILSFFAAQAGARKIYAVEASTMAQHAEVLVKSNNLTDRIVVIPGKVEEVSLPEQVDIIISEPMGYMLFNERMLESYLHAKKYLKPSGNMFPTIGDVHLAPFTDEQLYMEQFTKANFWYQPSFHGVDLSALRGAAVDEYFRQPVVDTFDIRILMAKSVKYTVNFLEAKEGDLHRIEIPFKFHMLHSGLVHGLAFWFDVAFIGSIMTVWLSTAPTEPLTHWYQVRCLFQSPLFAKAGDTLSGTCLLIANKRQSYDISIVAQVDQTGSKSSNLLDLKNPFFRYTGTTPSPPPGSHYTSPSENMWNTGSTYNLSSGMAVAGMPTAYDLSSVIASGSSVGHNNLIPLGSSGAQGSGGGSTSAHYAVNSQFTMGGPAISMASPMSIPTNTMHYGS
For the molecule `CNCC(O)COc1cccc(-c2nc(NC3CC3)c(C)c(-c3c(C)noc3C)n2)c1` (stereo not drawn) [Example 293-1a], the IC50 is below 100 nM. With `CCO[C@@H]1CCC[C@H]1N(CC)c1nc(-c2cc(OC[C@H](O)CNC)ccc2Cl)nc(-c2c(C)noc2C)c1C` [Example 241-3], the IC50 is below 100 nM. The same measure for `CNC[C@@H](O)COc1ccc(Cl)c(-c2nc(-c3c(C)noc3C)c(C)c(N3Cc4c(C)nn(C)c4C3)n2)c1` [Example 236-3]: below 100 nM; for `CNC[C@@H](O)COc1ccc(Cl)c(-c2nc(-c3c(C)noc3C)c(C)c(N3Cc4cn(S(C)(=O)=O)nc4C3)n2)c1` [Example 293-3]: below 100 nM. Consider `CNCC(O)COc1cccc(-c2nc(-c3c(C)noc3C)c(C)c(N3C[C@@H]4C[C@H]3CN4C)n2)c1` (stereo partly drawn) [Example 84-1a], for which the IC50 is below 100 nM. `CNCC(O)COc1cccc(-c2nc(NCCCCl)c(C)c(N[C@@H]3CCOC3)n2)c1` (stereo partly drawn) [Example 366-1a]: the IC50 was below 100 nM. Take `CNC[C@@H](O)COc1ccc(Cl)c(-c2nc(-c3c(C)noc3C)c(C)c(N3CC4(CCN(C5CC5)CC4)C3)n2)c1` [Example 108-3]: the IC50 was below 100 nM.

Take `CNCC(O)COc1cccc(-c2nc(-c3c(C)noc3C)c(C)c(N3CCO[C@H](CN(C)C)C3)n2)c1` (stereo partly drawn) [Example 151-1a]: the IC50 is below 100 nM.

Consider `CNC[C@@H](O)COc1ccc(Cl)c(-c2nc(-c3c(C)noc3C)c(C)c(N3CC4CC4C3)n2)c1` (stereo partly drawn) [Example 235-3], for which the IC50 is below 100 nM. The same measure for `CNCC(O)COc1cccc(-c2nc(-c3c(C)noc3C)c(C)c(N3CCC4(CC3)CN(C(=O)N(C)C)C4)n2)c1` (stereo not drawn) [Example 252-1a]: below 100 nM; for `CNCC(O)COc1cc(Cl)cc(-c2nc(Nc3cncnc3)c(C)c(N(C)C3CCOCC3)n2)c1` (stereo not drawn) [Example 506-1a]: below 100 nM. The same measure for `CNCC(O)COc1cccc(-c2nc(NCC3CCOCC3)c(C)c(-c3c(C)noc3C)n2)c1` (stereo not drawn) [Example 88-1a]: below 100 nM. The same measure for `CNCC(O)COc1cccc(-c2nc(C(=O)NCC3CCOCC3)cc(N(C)C3CCOCC3)n2)c1` (stereo not drawn) [Example 548-1a]: below 100 nM; for `CNC[C@@H](O)COc1ccc(Cl)c(-c2nc(N[C@H]3C[C@H](OC)C3)c(C)c(-c3c(C)noc3C)n2)c1` [Example 143-3]: below 100 nM. As for `CNCC(O)COc1cccc(-c2nc(-c3cnc4c(C(=O)N(C)C)cnn4c3)cc(N(C)C3CCOCC3)n2)c1` (stereo not drawn) [Example 514-1a], the IC50 was below 100 nM. The same measure for `CNCC(O)COc1cccc(-c2nc(N3CCN(C)C(=O)C3)cc(N(C)C3CCOCC3)n2)c1` (stereo not drawn) [Example 549-1a]: below 100 nM; for `CNC[C@@H](O)COc1ccc(Cl)c(-c2nc(N[C@H]3CCN(C(=O)OC)[C@@H](C)C3)c(C)c(-c3c(C)noc3C)n2)c1` [Example 169-3]: below 100 nM; for `CNC[C@@H](O)COc1ccc(Cl)c(-c2nc(NC3CC4(C3)CN(C(=O)OC)C4)c(C)c(-c3c(C)noc3C)n2)c1` [Example 146-3]: below 100 nM.

On to `CNC[C@@H](O)COc1ccc(Cl)c(-c2nc(-c3c(C)noc3C)cc(N3Cc4nccnc4C3)n2)c1` [Example 251-3], for which the IC50 was below 100 nM. For the molecule `CCOC(=O)N1CCOC[C@@H]1COc1nc(-c2cc(OC[C@H](O)CNC)ccc2Cl)nc(-c2c(C)noc2C)c1C` [Example 161-3], the IC50 was below 100 nM. The same measure for `CNC[C@@H](O)COc1ccc(Cl)c(-c2nc(N[C@H]3CO[C@H](C)C3)c(C)c(-c3c(C)noc3C)n2)c1` [Example 198-3]: below 100 nM. Take `CNCC(O)COc1cccc(-c2nc(-c3c(C)noc3C)cc(N3CCN(CC(F)F)CC3)n2)c1` (stereo not drawn) [Example 79-1a]: the IC50 is below 100 nM. Regarding `CNCC(O)COc1cccc(-c2nc(-c3c(C)noc3C)cc(N3CCN(C(=O)C4CC4)CC3)n2)c1` (stereo not drawn) [Example 133-1a], the IC50 is below 100 nM.

Consider `CNCC(O)COc1cccc(-c2nc(N[C@H]3C[C@@](C)(O)C3)cc(-c3c(C)noc3C)n2)c1` (stereo partly drawn) [Example 67-1a], for which the IC50 was below 100 nM. `CNCC(O)COc1cccc(-c2nc(N[C@H]3[C@@H]4CN(C(=O)OC)C[C@@H]43)c(C)c(-c3c(C)noc3C)n2)c1` (stereo partly drawn) [Example 282-1a]: the IC50 is below 100 nM. The same measure for `CNCC(O)COc1cc(Cl)cc(-c2nc(C(=O)N(C)CC3CCOCC3)cc(N(C)C3CCOCC3)n2)c1` (stereo not drawn) [Example 577-1a]: below 100 nM; for `CCOC(=O)N1CCC[C@@H]1CNc1nc(-c2cc(OC[C@@H](O)CNC)ccc2Cl)nc(-c2c(C)noc2C)c1C` [Example 49-3]: below 100 nM. Then `CNCC(O)COc1cccc(-c2nc(NCC3CCN(C(=O)OC)CC3)c(C)c(-c3c(C)noc3C)n2)c1` (stereo not drawn) [Example 184-1a], with below 100 nM; and `CNCC(O)COc1cccc(-c2nc(-c3c(C)noc3C)cc(-c3c(C)noc3C)n2)c1` (stereo not drawn) [Example 3-1a], with below 100 nM; and `CNCC(O)COc1cccc(-c2nc(-c3c(C)noc3C)c(C)c(N3CCO[C@@H](CN(C)C)C3)n2)c1` (stereo partly drawn) [Example 148-1a], with below 100 nM. Then `CNC[C@@H](O)COc1ccc(Cl)c(-c2nc(N[C@@H]3CO[C@@H](C)C3)c(C)c(-c3c(C)noc3C)n2)c1` [Example 162-3], with below 100 nM; and `CNC[C@@H](O)COc1ccc(Cl)c(-c2nc(NC3CC(F)C3)c(C)c(-c3c(C)noc3C)n2)c1` (stereo partly drawn) [Example 188-3], with below 100 nM; and `CNCC(O)COc1cccc(-c2nc(OC3CCOCC3)c(C)c(-c3c(C)noc3C)n2)c1` (stereo not drawn) [Example 181-1a], with below 100 nM. Take `CNCC(O)COc1cccc(-c2nc(NCC3CCN(CC(F)F)CC3)c(C)c(-c3c(C)noc3C)n2)c1` (stereo not drawn) [Example 205-1a]: the IC50 is below 100 nM.

Consider `CNCC(O)COc1cccc(-c2nc(-c3c(C)noc3C)cc(N(C)c3cncnc3)n2)c1` (stereo not drawn) [Example 50-1a], for which the IC50 was below 100 nM. In the case of `CCOC(=O)N1CC[C@@H](Nc2nc(-c3cccc(OCC(O)CNC)c3)nc(-c3c(C)noc3C)c2C)[C@H](F)C1` (stereo partly drawn) [Example 229-1a], the IC50 is below 100 nM.

As for `CNCC(O)COc1cc(Cl)cc(-c2nc(NC3CCOCC3)cc(-c3c(C)noc3C)n2)c1` (stereo not drawn) [Example 7-1a], the IC50 was below 100 nM. On to `CC[C@@H]1CN(c2nc(-c3cccc(OCC(O)CNC)c3)nc(-c3c(C)noc3C)c2C)CCN1S(=O)(=O)CC` (stereo partly drawn) [Example 152-1a], for which the 50% inhibitory concentration (IC50) is below 100 nM. Then `CNCC(O)COc1cccc(-c2nc(NC3CCOCC3)c(C)c(-c3c(C)noc3C)n2)c1` (stereo not drawn) [Example 6-1a], with below 100 nM; and `CNCC(O)COc1cccc(-c2nc(N[C@@H]3CCOC3)c(C)c(-c3ccncc3)n2)c1` (stereo partly drawn) [Example 332-1a], with below 100 nM.

On to `CNCC(O)COc1cccc(-c2nc(N[C@@H]3CCOC3)c(C)c(N3CCC(OC)CC3)n2)c1` (stereo partly drawn) [Example 370-1a], for which the IC50 is below 100 nM.

Regarding `CNCC(O)COc1cccc(-c2nc(N[C@@H]3CCOC3)c(C)c(N3CCN(C)[C@H](C)C3)n2)c1` (stereo partly drawn) [Example 463-1a], the IC50 was below 100 nM. Then `CNCC(O)COc1cccc(-c2nc(NC3CCN(C(=O)OC)CC3)c(C)c(-c3c(C)noc3C)n2)c1` (stereo not drawn) [Example 118-1a], with below 100 nM. The same measure for `CCOC(=O)N1CCC[C@H]1CCOc1nc(-c2cc(OC[C@H](O)CNC)ccc2Cl)nc(-c2c(C)noc2C)c1C` [Example 221-3]: below 100 nM; for `CNCC(O)COc1cccc(-c2nc(-c3cn(S(C)(=O)=O)c4ncncc34)cc(N(C)C3CCOCC3)n2)c1` (stereo not drawn) [Example 483-1a]: below 100 nM.

`CNCC(O)COc1cccc(-c2nc(-c3ccc(C(F)(F)F)nc3)cc(N(C)C3CCOCC3)n2)c1` (stereo not drawn) [Example 613-1a]: the IC50 was below 100 nM.

Turning to `CNC[C@@H](O)COc1ccc(Cl)c(-c2nc(NC[C@@H]3CCCO3)c(C)c(-c3c(C)noc3C)n2)c1` [Example 131-3], the IC50 is below 100 nM. The same measure for `CNCC(O)COc1cccc(-c2nc(-c3c(C)noc3C)cc(-c3cnc4cnccn34)n2)c1` (stereo not drawn) [Example 112-1a]: below 100 nM.

Turning to `CNCC(O)COc1cccc(-c2nc(N[C@@H]3CCOC3)c(C)c(N3Cc4ccncc4C3)n2)c1` (stereo partly drawn) [Example 427-1a], the IC50 is below 100 nM. `CNCC(O)COc1cccc(-c2nc(N[C@@H]3CCOC3)c(C)c(N(C)C3CCN(C)CC3)n2)c1` (stereo partly drawn) [Example 379-1a]: the IC50 is below 100 nM.

Turning to `CCO[C@H]1CCC[C@H]1N(CC)c1nc(-c2cc(OC[C@H](O)CNC)ccc2Cl)nc(-c2c(C)noc2C)c1C` [Example 255-3], the IC50 was below 100 nM. In the case of `CNCC(O)COc1cccc(-c2nc(NCC3CCCN(CC(F)F)C3)c(C)c(-c3c(C)noc3C)n2)c1` (stereo not drawn) [Example 193-1a], the IC50 was below 100 nM. The same measure for `CNCC(O)COc1cc(Cl)cc(-c2nc(Nc3cncnc3)cc(-c3c(C)noc3C)n2)c1` (stereo not drawn) [Example 9-1a]: below 100 nM. For the molecule `CNC[C@@H](O)COc1ccc(Cl)c(-c2nc(-c3c(C)noc3C)c(C)c(N3CC4(CCN(C(=O)OC(C)C)C4)C3)n2)c1` [Example 286-3], the IC50 was below 100 nM. Consider `CCOC(=O)N1CCOC[C@H]1CNc1nc(-c2cc(OC[C@H](O)CNC)ccc2Cl)nc(-c2c(C)noc2C)c1C` [Example 25-3], for which the IC50 is below 100 nM. The same measure for `CNC[C@@H](O)COc1ccc(Cl)c(-c2nc(-c3c(C)noc3C)c(C)c(N3Cc4[nH]c(=O)[nH]c(=O)c4C3)n2)c1` [Example 279-3]: below 100 nM. Take `CNCC(O)COc1cccc(-c2nc(NC3CCCN(C(=O)N(C)C)C3)c(C)c(-c3c(C)noc3C)n2)c1` (stereo not drawn) [Example 216-1a]: the IC50 was below 100 nM. As to `CCS(=O)(=O)N1CCN(c2nc(-c3cccc(OCC(O)CNC)c3)nc(NC3CCOC3)c2C)CC1(C)C` (stereo not drawn) [Example 448-1a], the half-inhibitory concentration (IC50) is below 100 nM.

`CNCC(O)COc1cccc(-c2nc(-c3ccncc3)c(C)c(N(C)C3CCOCC3)n2)c1` (stereo not drawn) [Example 537-1a]: the IC50 was below 100 nM. Regarding `CNCC(O)COc1cccc(-c2nc(-c3ccc4c(c3)OCCO4)cc(N(C)CCC#N)n2)c1` (stereo not drawn) [Example 48-1], the IC50 is below 100 nM. On to `CCNC(=O)N1CCN(c2nc(-c3cccc(OCC(O)CNC)c3)nc(-c3c(C)noc3C)c2C)CC1` (stereo not drawn) [Example 106-1a], for which the IC50 was below 100 nM. The same measure for `CNCC(O)COc1cccc(-c2nc(N[C@@H]3CCOC3)c(C)c(N3CC[C@H](N(C)C)C3)n2)c1` (stereo partly drawn) [Example 368-1a]: below 100 nM. For the molecule `CNCC(O)COc1cccc(-c2nc(-c3cncnc3)cc(N(C)CCC#N)n2)c1` (stereo not drawn) [Example 18-1], the IC50 was below 100 nM.
